Measurements: PMC2806030, “Inhibition of mammalian S6 kinase by resveratrol suppresses autophagy” (Aging (Albany NY), 2009)

Key:
Assay in all cases: biochemical
Design in all cases: Upstate KinaseProfiler in vitro kinase activity assay, per cent of DMSO control
Details in all cases: read-out: Activity (% of Control)
[1] = target: ALK(h) (Homo sapiens, UniProt Q9UM73)
Summary of the method: (§1)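 Profiling done with Upstate KinaseProfiler service across 100 kinases, resveratrol tested at 20 μM; activity expressed relative to control.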

[2] = target: T1, CHK1(h) (Homo sapiens, UniProt O14757)
T1 construct: gene CHEK1
Summary of the method: as §1

[3] = target: CSK(h) (Homo sapiens, UniProt P41240)
Summary of the method: as §1

[4] = target: IRAK1(h) (Homo sapiens, UniProt P51617)
Summary of the method: as §1

[5] = target: T2, MST1(h) (Homo sapiens, UniProt Q13043)
T2 construct: gene STK4
Summary of the method: as §1

[6] = target: T3, MST2(h) (Homo sapiens, UniProt Q13188)
T3 construct: gene STK3
Summary of the method: as §1

[7] = target: Met(h) (Homo sapiens, UniProt P08581)
Summary of the method: as §1

[8] = target: NEK6(h) (Homo sapiens, UniProt Q9HC98)
Summary of the method: as §1

[9] = target: T4, PDGFRß(h) (Homo sapiens, UniProt P09619)
T4 construct: gene PDGFRB
Summary of the method: as §1

[10] = target: T5, PDGFRα(h) (Homo sapiens, UniProt P16234)
T5 construct: gene PDGFRA
Summary of the method: as §1

[11] = target: T6, PKCßI(h) (Homo sapiens, UniProt P05771)
T6 construct: gene PRKCB; isoform beta I
Summary of the method: as §1

[12] = target: T7, PKCζ(h) (Homo sapiens, UniProt Q05513)
T7 construct: gene PRKCZ
Summary of the method: as §1

[13] = target: T8, Pim-1 (Homo sapiens, UniProt P11309)
T8 construct: gene PIM1
Summary of the method: as §1

[14] = target: Plk3(h) (Homo sapiens, UniProt Q9H4B4)
Summary of the method: as §1

[15] = target: T9, Rsk2(h) (Homo sapiens, UniProt P51812)
T9 construct: gene RPS6KA3
Summary of the method: as §1

[16] = target: SGK2(h) (Homo sapiens, UniProt Q9HBY8)
Summary of the method: as §1

[17] = target: T10, Snk(h) (Homo sapiens, UniProt Q9NYY3)
T10 construct: gene PLK2
Summary of the method: as §1

[18] = target: T11, TrkA(h) (Homo sapiens, UniProt P04629)
T11 construct: gene NTRK1
Summary of the method: as §1

T8 sequence (P11309 whole entry): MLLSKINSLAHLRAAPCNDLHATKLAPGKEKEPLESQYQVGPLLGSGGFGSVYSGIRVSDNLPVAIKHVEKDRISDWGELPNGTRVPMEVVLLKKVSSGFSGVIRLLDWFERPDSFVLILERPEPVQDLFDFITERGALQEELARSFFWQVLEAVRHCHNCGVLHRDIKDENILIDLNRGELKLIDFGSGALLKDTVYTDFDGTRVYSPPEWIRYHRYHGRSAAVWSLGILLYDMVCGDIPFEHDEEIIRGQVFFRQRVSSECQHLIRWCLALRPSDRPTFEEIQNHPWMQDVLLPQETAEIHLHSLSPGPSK
Sequence of CSK(h) (P41240 whole entry): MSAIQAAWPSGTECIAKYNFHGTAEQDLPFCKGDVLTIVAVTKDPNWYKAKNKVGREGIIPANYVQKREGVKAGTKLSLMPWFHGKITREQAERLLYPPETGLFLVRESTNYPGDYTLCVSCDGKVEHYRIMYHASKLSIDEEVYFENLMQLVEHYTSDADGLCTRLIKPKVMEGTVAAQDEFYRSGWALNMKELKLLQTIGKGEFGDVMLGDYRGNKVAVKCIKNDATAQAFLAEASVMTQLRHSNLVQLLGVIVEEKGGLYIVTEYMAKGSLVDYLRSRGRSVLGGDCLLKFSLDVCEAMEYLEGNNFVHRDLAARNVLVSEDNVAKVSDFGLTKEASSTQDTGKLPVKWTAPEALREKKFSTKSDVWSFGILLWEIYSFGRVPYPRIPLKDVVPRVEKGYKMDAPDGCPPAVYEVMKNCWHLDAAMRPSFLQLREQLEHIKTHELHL
T11 sequence (P04629 whole entry): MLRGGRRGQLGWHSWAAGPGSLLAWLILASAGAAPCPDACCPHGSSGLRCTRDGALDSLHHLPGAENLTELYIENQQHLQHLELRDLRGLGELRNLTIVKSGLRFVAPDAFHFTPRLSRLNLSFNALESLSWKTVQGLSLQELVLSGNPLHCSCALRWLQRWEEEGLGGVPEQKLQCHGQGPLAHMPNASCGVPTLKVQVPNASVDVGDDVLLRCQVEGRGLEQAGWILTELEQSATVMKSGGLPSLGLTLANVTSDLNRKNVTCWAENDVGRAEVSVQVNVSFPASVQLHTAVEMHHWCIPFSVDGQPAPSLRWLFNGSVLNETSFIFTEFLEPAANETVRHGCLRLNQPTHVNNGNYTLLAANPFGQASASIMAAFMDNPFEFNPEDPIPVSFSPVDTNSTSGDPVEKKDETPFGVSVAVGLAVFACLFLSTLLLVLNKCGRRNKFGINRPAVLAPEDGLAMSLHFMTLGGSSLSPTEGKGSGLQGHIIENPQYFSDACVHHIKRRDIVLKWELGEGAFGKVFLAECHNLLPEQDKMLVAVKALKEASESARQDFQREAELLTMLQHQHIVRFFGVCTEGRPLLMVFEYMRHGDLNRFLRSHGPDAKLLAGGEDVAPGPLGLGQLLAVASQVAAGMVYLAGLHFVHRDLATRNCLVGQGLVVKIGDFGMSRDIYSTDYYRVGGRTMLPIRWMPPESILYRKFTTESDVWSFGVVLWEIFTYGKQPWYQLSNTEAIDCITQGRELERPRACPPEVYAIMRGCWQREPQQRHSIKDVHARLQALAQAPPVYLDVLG
Sequence of SGK2(h) (Q9HBY8 whole entry): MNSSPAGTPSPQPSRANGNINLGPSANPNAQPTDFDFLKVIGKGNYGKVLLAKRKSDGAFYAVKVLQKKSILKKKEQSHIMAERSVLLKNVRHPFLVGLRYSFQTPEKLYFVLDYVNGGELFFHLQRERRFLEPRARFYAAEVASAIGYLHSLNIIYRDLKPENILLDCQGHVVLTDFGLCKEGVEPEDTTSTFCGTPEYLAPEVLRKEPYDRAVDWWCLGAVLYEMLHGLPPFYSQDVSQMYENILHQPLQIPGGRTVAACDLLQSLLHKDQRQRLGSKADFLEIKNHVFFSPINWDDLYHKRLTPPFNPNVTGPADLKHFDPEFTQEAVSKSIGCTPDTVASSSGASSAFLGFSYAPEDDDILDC
Sequence of NEK6(h) (Q9HC98 whole entry): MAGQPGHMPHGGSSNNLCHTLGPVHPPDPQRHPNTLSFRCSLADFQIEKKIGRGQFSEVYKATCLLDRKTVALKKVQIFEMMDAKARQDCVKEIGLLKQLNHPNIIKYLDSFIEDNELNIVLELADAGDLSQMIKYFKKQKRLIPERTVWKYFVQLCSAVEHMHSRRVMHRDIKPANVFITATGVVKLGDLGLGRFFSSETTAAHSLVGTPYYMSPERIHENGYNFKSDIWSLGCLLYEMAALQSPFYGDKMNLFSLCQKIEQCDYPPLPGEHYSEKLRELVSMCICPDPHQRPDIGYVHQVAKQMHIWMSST
T4 sequence (P09619 whole entry): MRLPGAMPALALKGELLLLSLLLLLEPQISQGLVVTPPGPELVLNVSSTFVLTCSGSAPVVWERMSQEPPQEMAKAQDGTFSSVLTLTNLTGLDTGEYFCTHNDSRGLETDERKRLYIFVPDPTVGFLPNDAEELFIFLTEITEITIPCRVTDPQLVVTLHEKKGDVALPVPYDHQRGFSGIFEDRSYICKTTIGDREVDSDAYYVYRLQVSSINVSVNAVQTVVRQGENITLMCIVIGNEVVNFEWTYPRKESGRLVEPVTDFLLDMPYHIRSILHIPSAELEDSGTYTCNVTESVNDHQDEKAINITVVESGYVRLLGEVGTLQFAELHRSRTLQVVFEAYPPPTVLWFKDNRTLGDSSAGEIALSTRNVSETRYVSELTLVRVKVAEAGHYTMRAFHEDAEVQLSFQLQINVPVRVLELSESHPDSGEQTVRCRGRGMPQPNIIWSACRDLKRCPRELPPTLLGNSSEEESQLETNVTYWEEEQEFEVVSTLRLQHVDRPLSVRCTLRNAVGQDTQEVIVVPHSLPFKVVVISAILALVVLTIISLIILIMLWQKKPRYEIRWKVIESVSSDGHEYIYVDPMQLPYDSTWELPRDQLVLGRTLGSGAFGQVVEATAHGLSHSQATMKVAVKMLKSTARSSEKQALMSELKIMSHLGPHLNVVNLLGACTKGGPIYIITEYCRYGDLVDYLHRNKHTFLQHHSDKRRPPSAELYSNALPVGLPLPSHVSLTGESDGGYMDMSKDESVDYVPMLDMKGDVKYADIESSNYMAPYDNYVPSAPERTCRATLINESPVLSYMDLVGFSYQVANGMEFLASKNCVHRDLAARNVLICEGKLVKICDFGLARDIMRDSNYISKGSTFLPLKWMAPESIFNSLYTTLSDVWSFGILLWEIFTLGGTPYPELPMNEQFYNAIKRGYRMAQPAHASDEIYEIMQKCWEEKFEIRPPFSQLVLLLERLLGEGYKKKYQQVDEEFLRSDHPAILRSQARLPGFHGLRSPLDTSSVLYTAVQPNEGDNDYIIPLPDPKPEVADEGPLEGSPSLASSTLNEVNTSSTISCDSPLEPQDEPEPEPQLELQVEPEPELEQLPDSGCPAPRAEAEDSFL
T2 sequence (Q13043 whole entry): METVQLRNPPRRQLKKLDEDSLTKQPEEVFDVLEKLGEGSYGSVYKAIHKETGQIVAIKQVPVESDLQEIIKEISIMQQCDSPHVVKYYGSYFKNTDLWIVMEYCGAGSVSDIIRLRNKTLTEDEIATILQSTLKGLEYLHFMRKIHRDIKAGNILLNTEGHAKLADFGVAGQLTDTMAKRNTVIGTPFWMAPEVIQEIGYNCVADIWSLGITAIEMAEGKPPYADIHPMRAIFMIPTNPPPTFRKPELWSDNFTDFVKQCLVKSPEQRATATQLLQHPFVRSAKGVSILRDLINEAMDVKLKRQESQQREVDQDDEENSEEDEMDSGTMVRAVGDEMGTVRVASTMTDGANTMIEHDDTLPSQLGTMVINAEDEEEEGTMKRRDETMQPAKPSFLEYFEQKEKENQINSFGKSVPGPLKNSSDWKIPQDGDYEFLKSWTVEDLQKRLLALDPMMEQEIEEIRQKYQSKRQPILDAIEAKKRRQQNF
T7 sequence (Q05513 whole entry): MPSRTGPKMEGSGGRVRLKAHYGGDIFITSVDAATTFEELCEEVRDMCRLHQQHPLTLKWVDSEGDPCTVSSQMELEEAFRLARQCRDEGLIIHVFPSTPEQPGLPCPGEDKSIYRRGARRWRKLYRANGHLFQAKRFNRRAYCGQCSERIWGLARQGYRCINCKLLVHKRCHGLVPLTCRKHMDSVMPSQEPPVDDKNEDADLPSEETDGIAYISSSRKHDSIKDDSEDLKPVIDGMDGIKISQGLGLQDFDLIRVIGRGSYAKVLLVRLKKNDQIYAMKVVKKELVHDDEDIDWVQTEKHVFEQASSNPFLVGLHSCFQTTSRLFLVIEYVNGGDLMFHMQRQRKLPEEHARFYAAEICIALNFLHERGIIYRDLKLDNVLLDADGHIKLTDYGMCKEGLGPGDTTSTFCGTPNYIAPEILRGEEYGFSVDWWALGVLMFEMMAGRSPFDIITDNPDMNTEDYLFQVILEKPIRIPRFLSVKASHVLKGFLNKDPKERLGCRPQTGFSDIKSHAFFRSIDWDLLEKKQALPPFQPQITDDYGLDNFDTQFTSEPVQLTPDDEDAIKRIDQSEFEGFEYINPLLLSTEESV
T3 sequence (Q13188 whole entry): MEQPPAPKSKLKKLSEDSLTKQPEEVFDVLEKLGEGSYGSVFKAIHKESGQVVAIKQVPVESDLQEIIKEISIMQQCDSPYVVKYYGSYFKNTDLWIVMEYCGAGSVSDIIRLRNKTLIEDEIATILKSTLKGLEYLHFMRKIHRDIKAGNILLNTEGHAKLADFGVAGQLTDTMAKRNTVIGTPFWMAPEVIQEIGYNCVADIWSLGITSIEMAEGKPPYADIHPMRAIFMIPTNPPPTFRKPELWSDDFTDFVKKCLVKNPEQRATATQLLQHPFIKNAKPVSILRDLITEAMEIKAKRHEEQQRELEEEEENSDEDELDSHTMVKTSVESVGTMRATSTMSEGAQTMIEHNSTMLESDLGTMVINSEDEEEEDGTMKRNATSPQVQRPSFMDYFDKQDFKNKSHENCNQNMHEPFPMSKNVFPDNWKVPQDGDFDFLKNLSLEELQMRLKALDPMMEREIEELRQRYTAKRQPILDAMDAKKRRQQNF

Compound `Oc1ccc(/C=C/c2cc(O)cc(O)c2)cc1` [Res, resveratrol] has a remaining activity at 20 µM [1] of 39%, a remaining activity at 20 µM [2] of 95 ± 2% and a remaining activity at 20 µM [3] of 94 ± 5%. For the same compound, the remaining activity at 20 µM [4] was 97%, the remaining activity at 20 µM [5] was 75 ± 6% and the remaining activity at 20 µM [6] was 73 ± 8%. For the same compound, the remaining activity at 20 µM [7] was 114 ± 5%, the remaining activity at 20 µM [8] was 140 ± 16% and the remaining activity at 20 µM [9] was 119 ± 2%. For the same compound, the remaining activity at 20 µM [10] was 114 ± 2%, the remaining activity at 20 µM [11] was 103 ± 5% and the remaining activity at 20 µM [12] was 89%. The remaining activity at 20 µM [13] was 6 ± 2%, the remaining activity at 20 µM [14] was 95 ± 9% and the remaining activity at 20 µM [15] was 32%. It also gave a remaining activity at 20 µM [16] of 70 ± 1%, a remaining activity at 20 µM [17] of 81 ± 3% and a remaining activity at 20 µM [18] of 31 ± 3%.
